What was measured:
[1] = Liquid; for mass density: 101.33 kPa, vibrating tube; for Normal boiling temperature: Ebulliometric method (Recirculating still); for vapor or sublimation pressure: ebulliometry
[2] = refractive index (Na D-line) (dimensionless); conditions: 303.15 K, 101.33 kPa, Liquid

CCCC(=O)OCC [ethyl butanoate]
Conditions	mass density [kg/m3]	refractive index
[1], 298.15 K	873.94	–
[2], Abbe refractometer	–	1.388

Conditions	Normal boiling temperature [°C]
[1]	121.02

CCOC=O [ethyl methanoate]
Conditions	mass density [kg/m3]	refractive index
[1], 298.15 K	914.53	–
[2], Abbe refractometer	–	1.355

Conditions	Normal boiling temperature [°C]
[1]	54.14

CC(C)(C)O [2-methylpropan-2-ol]
Conditions	mass density [kg/m3]	refractive index	vapor or sublimation pressure [kPa]
[1], 303.15 K	775.37	–	–
[1], 332.3 K	–	–	37.4
[1], 333.03 K	–	–	38.69
[1], 333.45 K	–	–	39.34
[1], 334.6 K	–	–	41.37
[1], 335.29 K	–	–	42.93
[1], 335.87 K	–	–	43.85
[1], 336.43 K	–	–	45.01
[1], 337.17 K	–	–	46.69
[1], 337.8 K	–	–	48.06
[1], 338.37 K	–	–	49.27
[1], 338.86 K	–	–	50.27
[1], 339.5 K	–	–	51.81
[1], 340.08 K	–	–	53.17
[1], 340.59 K	–	–	54.25
[1], 341.17 K	–	–	55.83
[1], 341.63 K	–	–	56.78
[1], 342.18 K	–	–	58.37
[1], 342.68 K	–	–	59.61
[1], 343.13 K	–	–	60.61
[1], 343.7 K	–	–	62.3
[1], 344.13 K	–	–	63.27
[1], 344.68 K	–	–	64.99
[1], 345.06 K	–	–	65.81
[1], 345.49 K	–	–	67.05
[1], 346.11 K	–	–	69.05
[1], 346.51 K	–	–	70.21
[1], 346.83 K	–	–	71.11
[1], 347.28 K	–	–	72.45
[1], 347.68 K	–	–	73.43
[1], 348.2 K	–	–	75.35
[1], 348.54 K	–	–	76.17
[1], 348.9 K	–	–	77.42
[1], 349.34 K	–	–	78.76
[1], 349.74 K	–	–	80.07
[1], 350.1 K	–	–	81.3
[1], 350.53 K	–	–	82.71
[1], 350.9 K	–	–	83.96
[1], 351.33 K	–	–	85.66
[1], 351.67 K	–	–	86.64
[1], 352.05 K	–	–	88.15
[1], 352.45 K	–	–	89.39
[1], 352.8 K	–	–	90.67
[1], 353.13 K	–	–	92.07
[1], 353.5 K	–	–	93.39
[1], 353.81 K	–	–	94.63
[1], 354.18 K	–	–	95.95
[1], 354.51 K	–	–	97.04
[1], 354.85 K	–	–	98.36
[1], 355.23 K	–	–	100.07
[1], 355.5 K	–	–	100.88
[1], 355.58 K	–	–	101.32
[1], 355.83 K	–	–	102.22
[1], 356.22 K	–	–	103.92
[1], 356.52 K	–	–	105.27
[1], 356.86 K	–	–	106.62
[1], 357.15 K	–	–	107.71
[1], 357.45 K	–	–	109.12
[1], 357.77 K	–	–	110.47
[1], 358.06 K	–	–	111.51
[1], 358.35 K	–	–	112.83
[1], 358.68 K	–	–	114.36
[1], 358.96 K	–	–	115.48
[1], 359.27 K	–	–	117
[1], 359.84 K	–	–	119.53
[1], 360.13 K	–	–	120.87
[1], 360.46 K	–	–	122.36
[1], 360.64 K	–	–	123.08
[1], 360.97 K	–	–	124.73
[1], 361.26 K	–	–	126.15
[1], 361.47 K	–	–	126.96
[1], 361.73 K	–	–	128.2
[1], 362.02 K	–	–	129.63
[1], 362.54 K	–	–	132.15
[1], 362.75 K	–	–	133.36
[1], 363.03 K	–	–	134.71
[1], 363.08 K	–	–	134.81
[1], 363.56 K	–	–	137.4
[1], 363.82 K	–	–	138.8
[1], 364.09 K	–	–	140.03
[1], 364.33 K	–	–	141.29
[1], 364.66 K	–	–	142.96
[1], 365.09 K	–	–	145.34
[1], 365.27 K	–	–	146.36
[1], 365.62 K	–	–	148.18
[1], 366.1 K	–	–	150.66
[1], 366.51 K	–	–	153.08
[1], 366.81 K	–	–	154.69
[1], 367.08 K	–	–	156.16
[1], 367.49 K	–	–	158.58
[1], 367.83 K	–	–	160.39
[1], 368.23 K	–	–	162.82
[2], Standard Abbe refractometry	–	1.382	–

Source: the NIST ThermoML archive (doi:10.1021/je0202073)
